{"source": "patent US20240108738A1", "about": "“BICYCLIC PEPTIDE LIGANDS SPECIFIC FOR NK CELLS” (Bicycle Tx Limited, priority 2021, published 2024)", "note": "Numbered stars: 1 amine (or outer) side, 2 acyl side, 3 side chain; on linkers, the order of the positions; unused ones are H or OH. Bridge positions count the residues as written; N and C are the ends. Square brackets hold non-standard residues; d marks the D form. Peptide text beside a SMILES is read from it. TATA = O=C(CC[*:1])N1CN(C(=O)CC[*:2])CN(C(=O)CC[*:3])C1; Cba = N[C@@H](CC1CCC1)C(=O)O", "data": [{"molecular_target": "T1, Fc-tagged human NKp46 (Homo sapiens, UniProt O76036)", "T1 construct": "purchased ACROBiosystems NC1-H5257", "T1 sequence (O76036 22-304)": "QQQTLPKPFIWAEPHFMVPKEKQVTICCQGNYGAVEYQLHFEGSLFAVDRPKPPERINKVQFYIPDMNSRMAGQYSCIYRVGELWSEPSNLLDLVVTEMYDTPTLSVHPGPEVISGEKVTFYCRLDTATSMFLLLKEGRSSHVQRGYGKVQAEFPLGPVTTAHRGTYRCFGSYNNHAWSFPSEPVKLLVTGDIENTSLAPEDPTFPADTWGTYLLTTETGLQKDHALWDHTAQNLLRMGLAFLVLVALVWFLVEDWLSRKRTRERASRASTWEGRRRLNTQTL", "test": "NKp46 SPR assay (Method 1 and/or Method 2)", "type": "binding", "details": "SPR Method 1 and/or Method 2, Table 3B", "procedure": "SPR experiments were performed to determine ka (M^−1s^−1), kd (s^−1), KD (nM) values (where measurable) of various bicyclic peptides to immobilised NKp46.\nFor analysis of peptide binding to NKp46, a Biacore 3000 instrument was used with a Cytiva Streptavidin chip. Capture of the protein (recombinant human NKp46-Fc fusion biotinylated via Avi-tag) was carried out at 25° C. with HBS-N (10 mM HEPES, 0.15 M NaCl, pH 7.4) as the running buffer and biotinylated NKp46 was captured to a level of 400-800 RU using a dilution of protein to 0.2 μM in buffer. Buffer was then changed to PBS/0.05% Tween 20 and a dilution series of the peptides was prepared in this buffer with a final DMSO concentration of 0.5% with a top peptide concentration of 100 nM-5000 nM and 6 further 2 or 3-fold dilutions. The SPR analysis was run at 25° C. and a flow rate of 50 μl/min with 60 seconds association and 200-400 seconds dissociation time. Data were corrected for DMSO excluded volume effects. All data were double-referenced for blank injections and reference surface using standard processing procedures and data processing and kinetic fitting were performed using Scrubber software, version 2.0c (BioLogic Software). Data were fitted using simple 1:1 binding model allowing for mass transport effects where appropriate.\nPeptides were tested against Fc-tagged human NKp46 (ACROBiosystems, cat no. NC1-H5257).\nFor analysis of peptide binding, a Biacore 8k+ instrument was used with a CM5 chip (Cytiva). All experiments were carried out at 25° C. Anti-human IgG (Fc) antibody (Cytiva) was immobilized on all flow cells by standard amine coupling chemistry. The running buffer was HBS-N(Cytiva, 10 mM HEPES, 0.15 M NaCl, pH 7.4) and the flow rate was 10 μL/min. The carboxymethyl dextran surface was activated with a 1:1 ratio of 0.4 M 1-ethyl-3-(3-dimethylaminopropyl) carbodiimide hydrochloride (EDC)/0.1 M N-hydroxy succinimide (NHS) (Cytiva) for 420s. […] Residual activated groups were blocked with a 420 s injection of 1 M ethanolamine (pH 8.5). The final surface density was 3000-5000 RU. Fc-tagged human NKp46 was diluted to 0.1 μM in HBS-N and was captured on flow cell 2 only of the sensor chip at a flow rate of 10 μL/min to 500-1000 RU. The buffer was then changed to PBS-P+(Cytiva) supplemented with 2% DMSO. […] The flow rate was 50 μL/min with 60 s association and 400 s dissociation. Data were corrected for DMSO volume exclusion effects. All data were double-referenced against blank injections and reference surface response using standard processing procedures. Data processing and kinetic fitting was performed using Biacore Insight Evaluation Software with Extended Screening and Characterization Extension (Cytiva). Data were fitted using steady state affinity 1:1 binding model to determine KD. Data were fitted using kinetic 1:1 binding model to determine kinetic constants where appropriate.", "units": {"Kd": "nM"}, "values": [{"smiles": "CSCC[C@@H]1NC(=O)[C@H](CCCCN)NC(=O)[C@@H]2CCCN2C(=O)[C@H](Cc2c[nH]cn2)NC(=O)[C@H]([C@@H](C)O)NC(=O)[C@H](CC(N)=O)NC(=O)[C@@H]2CCCN2C(=O)[C@@H]2CSCCC(=O)N3CN(CN(C3)C(=O)CCSC[C@@H](C(=O)N[C@@H](C)C(N)=O)NC1=O)C(=O)CCSC[C@H](NC(=O)[C@H](C)N)C(=O)N[C@@H](CC(C)C)C(=O)N[C@@H](CC(C)C)C(=O)N[C@@H](Cc1c[nH]cn1)C(=O)N[C@@H](CCC(=O)O)C(=O)N[C@@H](Cc1c[nH]cn1)C(=O)N2", "note": "[BCY15104, A-(SEQ ID NO: 6)-A] (H-ACLLHEHCPNTHPKMCA-NH2; linker 2-8-16 via TATA)", "Kd": 2880}, {"smiles": "CC[C@H](C)[C@@H]1NC(=O)[C@H]([C@@H](C)CC)NC(=O)[C@@H]2CCCN2C(=O)[C@H](Cc2c[nH]cn2)NC(=O)[C@H]([C@@H](C)O)NC(=O)[C@H](CC(N)=O)NC(=O)[C@@H]2CCCN2C(=O)[C@@H]2CSCCC(=O)N3CN(CN(C3)C(=O)CCSC[C@@H](C(=O)N[C@@H](C)C(N)=O)NC1=O)C(=O)CCSC[C@H](NC(=O)[C@H](C)N)C(=O)N[C@@H](CC(C)C)C(=O)N[C@@H](CC(C)C)C(=O)N[C@@H](Cc1c[nH]cn1)C(=O)N[C@@H](CC(=O)O)C(=O)N[C@@H](Cc1c[nH]cn1)C(=O)N2", "note": "[BCY15106, A-(SEQ ID NO: 8)-A] (H-ACLLHDHCPNTHPIICA-NH2; linker 2-8-16 via TATA)", "Kd": 2670}, {"smiles": "CC(C)C[C@@H]1NC(=O)[C@H](Cc2ccc(O)cc2)NC(=O)[C@H](CC(=O)O)NC(=O)[C@@H]2CCCN2C(=O)[C@H](CC(C)C)NC(=O)[C@H](Cc2ccc(O)cc2)NC(=O)[C@@H](NC(=O)[C@H](C)N)CSCCC(=O)N2CN3CN(C2)C(=O)CCSC[C@@H](C(=O)N[C@@H](C)C(N)=O)NC(=O)[C@H](Cc2ccc(O)c(C(C)(C)C)c2)NC(=O)[C@H](CCC(=O)O)NC(=O)[C@H](CC(=O)O)NC(=O)CNC(=O)[C@H](CSCCC3=O)NC1=O", "note": "[BCY15652, A-(SEQ ID NO: 109)-A]", "Kd": 44}, {"smiles": "CC(C)C[C@@H]1NC(=O)[C@H](Cc2ccc(O)cc2)NC(=O)[C@H](CC(=O)O)NC(=O)[C@@H]2CCCN2C(=O)[C@H](CC2CCC2)NC(=O)[C@H](Cc2ccc(O)cc2)NC(=O)[C@@H](NC(=O)[C@H](C)N)CSCCC(=O)N2CN3CN(C2)C(=O)CCSC[C@H](NC1=O)C(=O)N[C@H](C)C(=O)N[C@@H](CC(=O)O)C(=O)N[C@@H](CCC(=O)O)C(=O)N[C@@H](Cc1ccc(O)cc1)C(=O)N[C@H](C(=O)N[C@@H](C)C(N)=O)CSCCC3=O", "note": "[BCY16132, A-(SEQ ID NO: 40)-A] (H-ACY[Cba]PDYLC[dA]DEYCA-NH2; linker 2-9-14 via TATA; N-terminus assumed)", "Kd": 3.9}, {"smiles": "CC[C@H](C)[C@@H]1NC(=O)CNC(=O)[C@H](Cc2c[nH]c3ccccc23)NC(=O)[C@H](CCC(N)=O)NC(=O)[C@@H]2CSCCC(=O)N3CN(CN(C3)C(=O)CCSC[C@H](N)C(=O)N[C@@H](CC(=O)O)C(=O)N[C@@H](CC(C)C)C(=O)N[C@@H]([C@@H](C)O)C(=O)N[C@@H]([C@@H](C)O)C(=O)N[C@@H](Cc3c[nH]cn3)C(=O)N[C@@H](CC(N)=O)C(=O)N2)C(=O)CCSC[C@@H](C(N)=O)NC1=O", "note": "[BCY18262, (SEQ ID NO: 11)]", "Kd": 3180}, {"smiles": "CC[C@H](C)[C@@H]1NC(=O)CNC(=O)[C@H](Cc2c[nH]c3ccccc23)NC(=O)[C@H](CCC(N)=O)NC(=O)[C@@H]2CSCCC(=O)N3CN(CN(C3)C(=O)CCSC[C@@H](C(=O)N[C@@H](C)C(N)=O)NC1=O)C(=O)CCSC[C@H](NC(=O)[C@H](C)N)C(=O)N[C@@H](CC(=O)O)C(=O)N[C@@H](CC(C)C)C(=O)N[C@@H](C)C(=O)N[C@@H]([C@@H](C)O)C(=O)N[C@@H](Cc1c[nH]cn1)C(=O)N[C@@H](CC(N)=O)C(=O)N2", "note": "[BCY18265, A-(SEQ ID NO: 117)-A] (H-ACDLATHNCQWGICA-NH2; linker 2-9-14 via TATA; C-terminus assumed)", "Kd": 1480}, {"smiles": "CC[C@H](C)[C@@H]1NC(=O)CNC(=O)[C@H](Cc2c[nH]c3ccccc23)NC(=O)[C@H](C)NC(=O)[C@@H]2CSCCC(=O)N3CN(CN(C3)C(=O)CCSC[C@@H](C(=O)N[C@@H](C)C(N)=O)NC1=O)C(=O)CCSC[C@H](NC(=O)[C@H](C)N)C(=O)N[C@@H](CC(=O)O)C(=O)N[C@@H](CC(C)C)C(=O)N[C@@H]([C@@H](C)O)C(=O)N[C@@H]([C@@H](C)O)C(=O)N[C@@H](Cc1c[nH]cn1)C(=O)N[C@@H](CC(N)=O)C(=O)N2", "note": "[BCY18269, A-(SEQ ID NO: 119)-A] (H-ACDLTTHNCAWGICA-NH2; linker 2-9-14 via TATA)", "Kd": 1640}, {"smiles": "CC(C)C[C@@H]1NC(=O)[C@H](CC(=O)O)NC(=O)[C@@H](NC(=O)[C@H](C)N)CSCCC(=O)N2CN3CN(C2)C(=O)CCSC[C@H](NC(=O)[C@H](CC(N)=O)NC(=O)[C@H](Cc2c[nH]cn2)NC(=O)[C@H]([C@@H](C)O)NC(=O)[C@H]([C@@H](C)O)NC1=O)C(=O)N[C@@H](CCC(N)=O)C(=O)N[C@@H](Cc1c[nH]c2ccccc12)C(=O)NCC(=O)N[C@@H](C)C(=O)N[C@H](C(=O)N[C@@H](C)C(N)=O)CSCCC3=O", "note": "[BCY18272, A-(SEQ ID NO: 120)-A] (H-ACDLTTHNCQWGACA-NH2; linker 2-9-14 via TATA)", "Kd": 3190}, {"smiles": "CC[C@H](C)[C@@H]1NC(=O)CNC(=O)[C@H](Cc2c[nH]c3ccccc23)NC(=O)[C@H](C(C)C)NC(=O)[C@@H]2CSCCC(=O)N3CN(CN(C3)C(=O)CCSC[C@@H](C(=O)N[C@@H](C)C(N)=O)NC1=O)C(=O)CCSC[C@H](NC(=O)[C@H](C)N)C(=O)N[C@@H](CC(=O)O)C(=O)N[C@@H](CC(C)C)C(=O)N[C@@H]([C@@H](C)O)C(=O)N[C@@H]([C@@H](C)O)C(=O)N[C@@H](Cc1c[nH]cn1)C(=O)N[C@@H](CC(N)=O)C(=O)N2", "note": "[BCY18285, A-(SEQ ID NO: 128)-A] (H-ACDLTTHNCVWGICA-NH2; linker 2-9-14 via TATA; N-terminus and C-terminus assumed)", "Kd": 3760}, {"smiles": "CC[C@H](C)[C@@H]1NC(=O)CNC(=O)[C@H](Cc2cn(C)c3ccccc23)NC(=O)[C@H](CCC(N)=O)NC(=O)[C@@H]2CSCCC(=O)N3CN(CN(C3)C(=O)CCSC[C@@H](C(=O)N[C@@H](C)C(N)=O)NC1=O)C(=O)CCSC[C@H](NC(=O)[C@H](C)N)C(=O)N[C@@H](CC(=O)O)C(=O)N[C@@H](CC(C)C)C(=O)N[C@@H]([C@@H](C)O)C(=O)N[C@@H]([C@@H](C)O)C(=O)N[C@@H](Cc1c[nH]cn1)C(=O)N[C@@H](CC(N)=O)C(=O)N2", "note": "[BCY18288, A-(SEQ ID NO: 131)-A]", "Kd": 354}, {"smiles": "CC[C@H](C)[C@@H]1NC(=O)[C@@H](C)NC(=O)[C@H](Cc2c[nH]c3ccccc23)NC(=O)[C@H](CCC(N)=O)NC(=O)[C@@H]2CSCCC(=O)N3CN(CN(C3)C(=O)CCSC[C@@H](C(=O)N[C@@H](C)C(N)=O)NC1=O)C(=O)CCSC[C@H](NC(=O)[C@H](C)N)C(=O)N[C@@H](CC(=O)O)C(=O)N[C@@H](CC(C)C)C(=O)N[C@@H]([C@@H](C)O)C(=O)N[C@@H]([C@@H](C)O)C(=O)N[C@@H](Cc1c[nH]cn1)C(=O)N[C@@H](CC(N)=O)C(=O)N2", "note": "[BCY18292, A-(SEQ ID NO: 135)-A] (H-ACDLTTHNCQW[dA]ICA-NH2; linker 2-9-14 via TATA; N-terminus and C-terminus assumed)", "Kd": 1460}]}]}
